From BindingDB's records for patent US20250326769 (Nuvalent, 2025)

Key:
[1] = target: ALK tyrosine kinase receptor [I1171N,D1203N] (UniProt Q9UM73, D1203N/I1171N); assay: Biochemical Kinase Assay
Method: (§1) First, 250 nL of compound dissolved in DMSO (100-fold of the desired concentration) was dispensed into a 384-well plate. A 12.5 μL substrate solution containing ATP (2 mM) and fluorogenic phosphorylation substrate AQT0101 ([…] for ALK and ROS, AssayQuant) or AQT0104 (26 μM for TRKB, AssayQuant) in buffer (50 mM HEPES pH 7.5, […], 0.5 mM EGTA, 10 mM MgCl2) was added and mixed thoroughly. Then, a 12.5 μL kinase solution containing ALK (1.5 nM, Carna, 08-518), ALK I1171N/D1203N (4 nM, SignalChem, custom-made), ROS1 (0.6 nM, Carma, 08-163), ROS1-G2032R (0.5 nM, SignalChem, R14-121BG), or TRKB-wt (1.5 nM, SignalChem, N17-11G) kinase domains in buffer ([…] pH 7.5, 0.01% Brij-[…], 0.4 mg/mL BSA, 0.5 mM EGTA, and 10 mM MgCl2) was added and mixed thoroughly. The plate was sealed and read by SpectraMax Paradigm at λ=485 nm every 2 minutes for 120 minutes at 30° C. Initial rates of reaction (v) were calculated from the change in fluorescence intensity over time during the initial, linear portion of the reaction.

[2] = target: BDNF/NT-3 growth factors receptor (Homo sapiens, UniProt Q16620); assay: Biochemical Kinase Assay
Method: as §1

Sequence of ALK tyrosine kinase receptor [I1171N,D1203N] (Q9UM73 19-1620 I1171N/D1203N limits assumed): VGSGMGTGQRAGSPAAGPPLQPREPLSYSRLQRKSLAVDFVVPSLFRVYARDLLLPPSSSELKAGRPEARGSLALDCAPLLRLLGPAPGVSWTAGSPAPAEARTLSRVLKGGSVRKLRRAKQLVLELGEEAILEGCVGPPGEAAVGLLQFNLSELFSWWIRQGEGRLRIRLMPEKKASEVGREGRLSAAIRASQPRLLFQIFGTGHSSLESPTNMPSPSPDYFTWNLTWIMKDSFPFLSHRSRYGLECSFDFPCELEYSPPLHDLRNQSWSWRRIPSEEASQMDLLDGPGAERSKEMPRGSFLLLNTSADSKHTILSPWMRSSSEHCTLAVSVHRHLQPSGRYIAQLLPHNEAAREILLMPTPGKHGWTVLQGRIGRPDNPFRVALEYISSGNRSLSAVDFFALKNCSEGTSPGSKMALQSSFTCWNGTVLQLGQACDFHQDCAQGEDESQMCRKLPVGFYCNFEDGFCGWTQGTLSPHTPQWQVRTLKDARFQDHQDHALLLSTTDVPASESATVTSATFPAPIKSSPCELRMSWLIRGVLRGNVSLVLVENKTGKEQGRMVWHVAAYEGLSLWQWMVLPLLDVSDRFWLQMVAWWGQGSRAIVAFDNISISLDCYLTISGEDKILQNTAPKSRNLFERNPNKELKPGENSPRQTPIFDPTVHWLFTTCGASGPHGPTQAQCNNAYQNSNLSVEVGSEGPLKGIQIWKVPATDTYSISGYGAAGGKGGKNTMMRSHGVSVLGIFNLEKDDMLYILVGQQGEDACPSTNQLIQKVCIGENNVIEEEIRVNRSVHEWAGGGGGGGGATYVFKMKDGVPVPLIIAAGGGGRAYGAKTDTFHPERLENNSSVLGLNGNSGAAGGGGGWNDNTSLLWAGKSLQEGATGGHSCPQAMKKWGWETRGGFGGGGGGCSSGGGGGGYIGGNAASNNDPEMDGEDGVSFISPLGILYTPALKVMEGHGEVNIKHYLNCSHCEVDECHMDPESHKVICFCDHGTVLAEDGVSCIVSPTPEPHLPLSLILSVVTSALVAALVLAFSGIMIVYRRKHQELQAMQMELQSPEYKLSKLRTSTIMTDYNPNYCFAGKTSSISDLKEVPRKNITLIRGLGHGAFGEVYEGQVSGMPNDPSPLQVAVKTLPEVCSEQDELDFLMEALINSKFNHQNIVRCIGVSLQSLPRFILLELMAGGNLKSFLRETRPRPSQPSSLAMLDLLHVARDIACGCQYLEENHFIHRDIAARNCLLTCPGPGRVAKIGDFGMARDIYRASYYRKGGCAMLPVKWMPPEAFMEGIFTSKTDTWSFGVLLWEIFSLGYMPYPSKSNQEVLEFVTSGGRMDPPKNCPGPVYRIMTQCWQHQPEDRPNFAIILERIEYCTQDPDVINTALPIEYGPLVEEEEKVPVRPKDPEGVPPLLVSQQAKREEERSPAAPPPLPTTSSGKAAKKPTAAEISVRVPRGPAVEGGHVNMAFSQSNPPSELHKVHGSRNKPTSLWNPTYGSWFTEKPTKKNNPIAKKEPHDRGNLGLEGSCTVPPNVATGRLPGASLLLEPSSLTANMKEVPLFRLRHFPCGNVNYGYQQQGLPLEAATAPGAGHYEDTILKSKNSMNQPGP
Sequence of BDNF/NT-3 growth factors receptor (Q16620 whole entry): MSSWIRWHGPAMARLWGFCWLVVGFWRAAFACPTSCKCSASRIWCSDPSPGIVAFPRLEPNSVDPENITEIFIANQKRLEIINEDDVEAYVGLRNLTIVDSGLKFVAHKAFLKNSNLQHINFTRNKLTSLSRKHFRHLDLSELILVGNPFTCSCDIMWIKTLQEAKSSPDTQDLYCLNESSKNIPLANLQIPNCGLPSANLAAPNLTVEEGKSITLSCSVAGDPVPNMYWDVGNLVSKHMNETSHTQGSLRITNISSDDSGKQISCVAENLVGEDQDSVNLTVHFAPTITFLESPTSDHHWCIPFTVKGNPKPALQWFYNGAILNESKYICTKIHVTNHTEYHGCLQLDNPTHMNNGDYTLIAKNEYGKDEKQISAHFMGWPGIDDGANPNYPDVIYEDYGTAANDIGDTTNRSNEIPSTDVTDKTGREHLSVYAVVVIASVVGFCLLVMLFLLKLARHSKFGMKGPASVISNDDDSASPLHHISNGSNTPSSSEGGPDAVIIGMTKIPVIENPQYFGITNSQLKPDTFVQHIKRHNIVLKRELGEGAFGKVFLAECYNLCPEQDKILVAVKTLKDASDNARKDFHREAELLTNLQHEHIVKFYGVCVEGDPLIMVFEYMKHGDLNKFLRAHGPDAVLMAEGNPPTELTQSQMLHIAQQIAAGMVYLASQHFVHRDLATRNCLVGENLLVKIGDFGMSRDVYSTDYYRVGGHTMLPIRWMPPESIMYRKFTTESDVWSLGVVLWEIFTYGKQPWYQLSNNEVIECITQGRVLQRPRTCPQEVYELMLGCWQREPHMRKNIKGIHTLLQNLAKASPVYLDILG

Row | Compound | Ki [1] | Ki [2]
1 | CCn1ncc2c1-c1cnc(N)c(c1)O[C@H](C)c1cc(F)ccc1-c1ncccc1O2 [US20250326769, Example 14] | < 50 nM | < 50 nM
2 | Cc1cc2n(n1)-c1c(F)cc(F)cc1[C@@H](C)Oc1cc(cnc1N)-c1c(c(C(=O)N(C)C)nn1CC1CC1)C2 [US20250326769, Example 44] | < 50 nM | 
3 | CC(C)N(C)C(=O)c1nn(CC2CC2)c2c1Cc1cn(C)nc1-c1ccc(F)cc1[C@@H](C)Oc1cc-2cnc1N [US20250326769, Example 37] | < 50 nM | > 500 nM
4 | C[C@H]1Oc2cc(cnc2N)-c2c(c(C(N)=O)nn2CC2CC2)Cc2cccnc2-c2ccc(F)cc21 [US20250326769, Example 6] | < 50 nM | 
5 | CCN(C)C(=O)c1nn(CC2CC2)c2c1Cc1cn(C)nc1-c1ccc(F)cc1[C@@H](C)Oc1cc-2cnc1N [US20250326769, Example 38] | < 50 nM | 
